Reference: US20140038847A1, “SCREENING AND CULTURING DEVICE AND METHODS FOR THE USE THEREOF” (Microstem, Inc., priority 2010, published 2014)

Experiments:
[1] = test system: MCF-7 breast carcinoma cells; assay: Paclitaxel multiparameter cytotoxicity in MCF-7 cells attached to ECM spots of the array (Cellomics Multiparameter Cytotoxicity 3 kit); type: cell-based, human; settings: cells grown on matrix of collagen IV, collagen V and fibronectin in equal concentrations, compared with fibronectin alone
Protocol: The human breast adenocarcinoma cell line MCF-7 was purchased from American Type Culture Collection (ATCC). Cells were cultured in minimal essential medium (DMEM), supplemented with 10% FBS and antibiotics (100 IU/ml of penicillin G), then incubated at 37° C. in a humidified atmosphere of 5% CO2. […] MCF-7 cells were seeded into 4 well plates containing an exemplary microarray slide according to the present invention at a density of about 0.1×10^6 cells/ml in 5 ml complete medium (0.5×10^6 cells/slide, total 8 slides) and cultured at 37° C. After 7 h of incubation, non adherent cells were removed and the slide was washed 1× with complete culture medium. New media with varying concentrations of paclitaxel was added ranging from 0 nM-3 uM (0 nM, 3 nM, 10 nM, 30 nM, 100 nM, 300 nm, 1 μM, 3 μM). Cells were incubated for about 16 h at 37° C. Slides were processed using the protocol provided by the manufacturer of the Cellomics Multiparameter Cytotoxicity 3 kit, employing the reagents included in the kit. […] The resulting slides were kept protected from light and analyzed within about 24 h. […] Compartmental Analysis BioApplication (Cellomics) software was used to quantify fluorescent signal. […]

[2] = test system: A549 lung cancer cell line; assay: TGF-β-induced epithelial mesenchymal transition of A549 cells on MicroMatrix ECM array (e-cadherin / vimentin staining); type: cell-based, human
Protocol: Packages containing products which embody present invention (MicroMatrix™ slides) were removed from −20° C. and brought to room temperature (RT). Using sterile techniques, 4 MicroMatrix™ slides were removed from packaging and put into a 4-chamber slide tray. A549 cells (ATCC, Rockville, Md.) were cultured according to manufacturer's protocol in complete medium of DMEM containing 10% FBS and antibiotics (Life Technology, CA) in standard tissue culture treated T-75 flasks (Corning).
Cells were trypsinized with EDTA for 5 minutes and neutralized with 10 ml of complete medium. Neutralized cell suspensions were put into a 50 ml conical tube and centrifuged for 6 minutes at 1100 rpm. Five milliliters of complete medium containing 5×10^5 cells was added to each of 4 identical MicroMatrix™ slides in the slide tray. The tray was placed in a 37° C. incubator with 5% CO2 and cells were allowed to attach to ECM spots overnight (14 hrs).
Unattached cells and media were aspirated from the slides and 5 ml of media containing 1% FBS with or without 5 ng/ml of TGF-β were added to each chamber. After 24 hrs, media was aspirated from the chamber and 5 ml of 4% para-formaldehyde (PFA) in 1×PBS (fixation buffer) was added to each slide for 10 minutes at RT.
Fixation buffer was aspirated from chambers and fixed slides were stained for nuclei, e-cadherin and vimentin expression. Briefly, mouse anti-human e-cadherin antibody (BD, CA) and rabbit anti-human vimentin (Cell Signaling Technology) antibody were added to each of 4 slides at a 1:100 dilution in PBS at RT for 3 hours. […]
Cell adhesion was determined by the number of nuclei present on a spot. […] Cells adhered to ECM compositions that met the 25 cell/spot criteria were then analyzed for e-cadherin and vimentin expression using the same Bioapplication software. A ring was formed around segmented objects (nuclei) and fluorescence measurements for secondary channels were captured. Average intensities of e-cadherin and vimentin were calculated and normalized by cells per spot.

[3] = A549 on certain combinations of ECMs, 24 hrs, 5 ng/ml TGF-β, compared with other ECM compositions

Compound | cytotoxic response of MCF-7 cells to paclitaxel (same cytotoxicity parameters) [1] | e-cadherin expression (epithelial marker) [2, 3] | vimentin expression (mesenchymal marker) [2, 3] | A549 cell attachment ([2]; certain ECM compositions that promote attachment without TGF-β, upon addition of TGF-β)
CC(=O)O[C@H]1C(=O)[C@@]2(C)[C@H]([C@H](OC(=O)c3ccccc3)[C@]3(O)C[C@H](OC(=O)[C@H](O)[C@@H](NC(=O)c4ccccc4)c4ccccc4)C(C)=C1C3(C)C)[C@]1(OC(C)=O)CO[C@@H]1C[C@@H]2O [paclitaxel, Paclitaxel] | maintain a resistance to paclitaxel |  |  | 
TGF-β |  | decreases in e-cadherin | increases in vimentin expression | cell detachment is observed
